Assay results reported in patent US10202388B2, “Fused-ring compounds, pharmaceutical composition and uses thereof” (SHANGHAI DE NOVO PHARMATECH CO., LTD., priority 2015, dated 2019).

What was measured:
Human recombinant IDO1 = Human recombinant IDO1 (Homo sapiens (Human), UniProt P14902); experiment: IDO1 enzymatic assay (UV absorption at 321 nm); type: biochemical; conditions: human recombinant IDO1, 80 min incubation, room temperature; read-out: hIDO1 IC50
Experimental: The detailed experimental method is as follow:
The compounds described in this disclosure were dissolved in 10% DMSO to predefined concentration. All of the reactions were conducted at room temperature in this disclosure. Human recombinant IDO1 (BPS Bioscience) was added so that its concentration was 200 nm in the reaction buffer solution (200 μL). […] 10 μL test compound solution was added into the above reaction solution (200 μL), so that the final concentration of DMSO in all reaction wells was 0.5%. % concentration was volume %. After 80 min incubation of the reaction solution, the UV absorbance was measured using TECAN Infinite M1000 plate reader. For the negative control (blank), 10 μl of the assay buffer was added instead of the IDO1
All reagents (excluding human recombinant IDO1) were purchased from Sigma Aldrich, MO, USA.
The percent activity in the presence of each compound was calculated according to the following equation: % activity=[(A−Ab)/(At−Ab)]×100, where A=the absorption signal in the presence of the compound, Ab=the absorption signal of blank, At=the absorption signal in the absence of the compound. […] The IC50 was calculated using non-linear regression in Graph Pad Prism® 4.

HeLa cell IDO1 = HeLa cell IDO1 (Homo sapiens (Human), UniProt P14902); experiment: HeLa cell based IDO1 inhibition assay (kynurenine readout, IFN-γ induced); conditions: HeLa cells
Experimental: HeLa cell line was purchased from ATCC, cultured in MEM/EBSS medium supplemented with 10% FBS, penn-step (100,000 U/L), non-essential amino acid (0.1 Mm), sodium pyruvate (1.0 Mm). Cells were cultured at 37° C., 95% humidity and 5% CO2. […] The detailed experimental method is as follow:
25,000 HeLa cells were placed on 96-well plates. Each well contained 100 μl culture medium, subsequently IFN-γ and test compounds at specific concentrations (concentration range between 10 μM and 1 Nm, so that the final volume of culture medium was 200 μL) were added and IFN-γ was used to induce IDO1 expression. After incubation, 140 μL supernatant was transferred to 96-well plates. After adding 6.1 N TCA (10 μL), the plates were continuously incubated at 50° C. for 30 min, to hydrolyze N-formylkynurenine produced by IDO to kynurenine. The reaction solution was then centrifuged at 2500 rpm for 10 min to remove precipitate. 100 μL/well supernatant was then transferred to another 96-well plate. 100 μL of 2% (w/v) 4-N,N-dimethyl aminobenzaldehyde acetic acid solution was added and incubated at room temperature for 10 min. The yellow color derived from kynurenine was recorded by measuring absorbance at 480 nm using a microplate reader (TECAN Infinite M1000 Pro).

HeLa cell based IDO1 = HeLa cell based IDO1 (Homo sapiens (Human), UniProt P14902); experiment: Three-point IDO1 cellular assay (HeLa, 10, 100 and 1000 nM); conditions: HeLa cells, 100 ng/mL IFN-γ, 18 hours; for inhibition values of %: at 1000 nM
Experimental: To perform the 3-point HeLa cell based IDO1 assay, HeLa cells were seeded at 25,000 cells per well into 96-well microplate in 100 μL of growth medium. Cells were incubated at 37° C. and 5% CO2 overnight. The next day 100 μL per well of diluted inhibitor in growth medium at 10, 100 and 1000 nM, respectively, was added at a final concentration of 100 ng/ML human IFN-γ. Cells were incubated at 37° C. in a CO2 incubator for 18 hours. […] The plate was incubated at 50° C. for 30 min to hydrolyze N-formylkynurenine produced by IDO1 to kynurenine. The plate was then centrifuged at 2500 rpm for 10 min to remove sediments. 100 μl of supernatant per well was transferred to another 96-well plate and mixed with 100 μL of 2% (w/v) 4-(Dimethylamino) benzaldehyde in acetic acid. The plate was incubated at room temperature for 10 minutes, the yellow color derived from kynurenine was recorded by measuring absorbance at 480 nm using a microplate reader (TECAN Infinite M1000 Pro). Cell based assays were performed in triplicate at each concentration. The absorbance data were analyzed using the computer software, Graphpad Prism. In the absence of the compound and presence of 100 ng/ML IFN-γ, the absorbance (At) in each data set was defined as 100%. The absorbance of medium blank (Ab) in each data set was defined as 0%. The percent absorbance in the presence of each compound was calculated according to the following equation: % Absorbance=(A−Ab)/(At−Ab), where A=the absorbance in the presence of the compound and IFN-γ, Ab=the absorbance of medium blank, and At=the absorbance in the absence of the compounds and presence of IFN-γ. The values of % absorbance versus the compound concentrations were then determined.

Sequence of Human recombinant IDO1 (P14902 whole entry): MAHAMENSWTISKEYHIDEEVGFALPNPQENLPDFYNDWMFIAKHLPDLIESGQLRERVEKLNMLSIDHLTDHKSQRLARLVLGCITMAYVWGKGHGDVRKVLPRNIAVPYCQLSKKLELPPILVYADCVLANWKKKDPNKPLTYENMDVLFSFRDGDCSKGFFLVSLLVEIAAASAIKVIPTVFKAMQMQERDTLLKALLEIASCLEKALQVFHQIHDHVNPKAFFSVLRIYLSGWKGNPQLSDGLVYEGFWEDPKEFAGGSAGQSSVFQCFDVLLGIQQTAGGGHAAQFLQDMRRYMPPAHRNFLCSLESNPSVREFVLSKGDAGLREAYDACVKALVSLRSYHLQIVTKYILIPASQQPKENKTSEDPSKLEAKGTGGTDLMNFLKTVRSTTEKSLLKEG
Sequence of HeLa cell IDO1 (P14902 whole entry): as above
Sequence of HeLa cell based IDO1 (P14902 whole entry): as above

SMILES | IC50 (Human recombinant IDO1) | IC50 (HeLa cell IDO1) | also measured
O=C(C[C@H]1c2ccccc2-c2cncn21)C12CC3CC(CC(C3)C1)C2 (single isomer, unassigned) [Compound 1-1] | 1000 to 10000 nM | – | –
O=C(C[C@H]1c2ccccc2-c2cncn21)C12CC3CC(CC(C3)C1)C2 (single isomer, unassigned) [Compound 1-2] | < 100 nM | 100 to 500 nM | –
O=C(C[C@@H]1c2ccccc2-c2cncn21)C12CC3CC(CC(C3)C1)C2 (single isomer, unassigned) [Compound 1-3] | < 100 nM | < 100 nM | –
O=C(C[C@@H]1c2ccccc2-c2cncn21)C12CC3CC(CC(C3)C1)C2 (single isomer, unassigned) [Compound 1-4] | 1000 to 10000 nM | – | –
OC(CC1c2ccccc2-c2cncn21)C12CC3CC(CC(C3)C1)C2 (centres unmarked) [Compound 1] | < 100 nM | 100 to 500 nM | –
OC(CC1c2ccccc2-c2cncn21)C12CC3CC(CC(O)(C3)C1)C2 (centres unmarked) [Compound 9] | < 100 nM | 100 to 500 nM | –
OC1C2CC3CC1CC(C(O)CC1c4ccccc4-c4cncn41)(C3)C2 (centres unmarked) [Compound 10A-3] | 1000 to 10000 nM | – | –
OC1C2CC3CC1CC(C(O)CC1c4ccccc4-c4cncn41)(C3)C2 (centres unmarked) [Compound 10A] | < 100 nM | < 100 nM | –
OC1C2CC3CC1CC([C@@H](O)CC1c4ccccc4-c4cncn41)(C3)C2 (some centres unmarked) [Compound 10B] | 100 to 500 nM | – | –
CC1(O)C2CC3CC1CC(C(O)CC1c4ccccc4-c4cncn41)(C3)C2 (centres unmarked) [Compound 11A] | – | < 100 nM | –
OC(CC1c2ccccc2-c2cncn21)C12CC3CC(CC(C3)C1)C2 (centres unmarked) [Compound 13] | < 100 nM | 100 to 500 nM | –
CC1(O)C2CC3CC1CC([C@@H](O)CC1c4ccccc4-c4cncn41)(C3)C2 (some centres unmarked) [Compound 14A-1] | 1000 to 10000 nM | – | –
CC1(O)C2CC3CC1CC([C@H](O)CC1c4ccccc4-c4cncn41)(C3)C2 (some centres unmarked) [Compound 14A-4] | < 100 nM | < 100 nM | –
OC1C2CC3CC1CC([C@H](O)CC1c4c(F)cccc4-c4cncn41)(C3)C2 (some centres unmarked) [Compound 23A-2] | 1000 to 10000 nM | – | –
OC1C2CC3CC1CC([C@@H](O)CC1c4c(F)cccc4-c4cncn41)(C3)C2 (some centres unmarked) [Compound 23A-4] | 1000 to 10000 nM | – | –
OC1C2CC3CC1CC([C@@H](O)CC1c4c(F)cccc4-c4cncn41)(C3)C2 (some centres unmarked) [Compound 23B] | 100 to 500 nM | – | inhibition values of % (HeLa cell based IDO1): greater than 50%

SMILES | IC50 (Human recombinant IDO1) | IC50 (HeLa cell IDO1) | also measured
OC1C2CC3CC1CC([C@@H](O)CC1c4c(F)cccc4-c4cncn41)(C3)C2 (some centres unmarked) [Compound 26A-2] | 1000 to 10000 nM | – | –
OC1C2CC3CC1CC([C@@H](O)CC1c4c(F)cccc4-c4cncn41)(C3)C2 (some centres unmarked) [Compound 26B] | 100 to 500 nM | – | –
OC(Cn1c2ccccc2n2cncc12)C12CC3CC(CC(C3)C1)C2 (centres unmarked) [Compound 40] | 1000 to 10000 nM | – | –
CCS(=O)(=O)NC1C2CC3CC1CC(C(O)CC1c4c(F)cccc4-c4cncn41)(C3)C2 (centres unmarked) [Compound 66] | – | < 100 nM | –
O=S(=O)(Cc1ccc(F)cc1)NC1C2CC3CC1CC(C(O)CC1c4c(F)cccc4-c4cncn41)(C3)C2 (centres unmarked) [Compound 71] | – | < 100 nM | –
CS(=O)(=O)Nc1ccc(S(=O)(=O)NC2C3CC4CC2CC(C(O)CC2c5c(F)cccc5-c5cncn52)(C4)C3)cc1 (centres unmarked) [Compound 87] | – | 500 to 1000 nM | –
Cc1ccc(NC(=O)NC2C3CC4CC2CC(C(O)CC2c5c(F)cccc5-c5cncn52)(C4)C3)cc1 (centres unmarked) [Compound 97] | – | < 100 nM | –
N#Cc1ccc(NC(=O)NC2C3CC4CC2CC(C(O)CC2c5c(F)cccc5-c5cncn52)(C4)C3)cc1 (centres unmarked) [Compound 100] | – | < 100 nM | –
CS(=O)(=O)c1ccc(NC(=O)NC2C3CC4CC2CC(C(O)CC2c5c(F)cccc5-c5cncn52)(C4)C3)cc1 (centres unmarked) [Compound 101] | – | 100 to 500 nM | –
CC(=O)Nc1ccc(NC(=O)NC2C3CC4CC2CC(C(O)CC2c5ccccc5-c5cncn52)(C4)C3)cc1 (centres unmarked) [Compound 102] | – | 1000 to 10000 nM | –
OC(CC1c2ccccc2-c2cncn21)C12CC3CC(C1)C(Nc1nc4ccccc4o1)C(C3)C2 (centres unmarked) [Compound 123] | – | < 100 nM | –
O=C(Nc1ccccc1)N1C2CC3CC1CC(C(O)CC1c4c(F)cccc4-c4cncn41)(C3)C2 (centres unmarked) [Compound 208] | – | < 100 nM | –
OC(CC1c2cccnc2-c2cncn21)C1CCCCC1 (centres unmarked) [compound 2] | 1000 to 10000 nM | – | –
OC(CC1c2ncccc2-c2cncn21)C1CCCCC1 (centres unmarked) [compound 3] | 100 to 500 nM | – | –
OC(CC1c2cc(F)ccc2-c2cncn21)C12CC3CC(CC(C3)C1)C2 (centres unmarked) [compound 7] | 100 to 500 nM | – | –
OC(CC1c2cccc(F)c2-c2cncn21)C12CC3CC(CC(C3)C1)C2 (centres unmarked) [compound 8] | 100 to 500 nM | – | –

Continued, in another order:

IC50 (Human recombinant IDO1) | IC50 (HeLa cell IDO1) | SMILES | also measured
< 100 nM | < 100 nM | O=C(NC1C2CC3CC1CC(C(O)CC1c4ccccc4-c4cncn41)(C3)C2)c1ccccc1 (single isomer, unassigned) [Compound 52A] | –
100 to 500 nM | < 100 nM | O=C(NC1C2CC3CC1CC(C(O)CC1c4ccccc4-c4cncn41)(C3)C2)c1ccccc1 (single isomer, unassigned) [Compound 52B] | –
< 100 nM | – | O=C(Cc1ccccc1)NC1C2CC3CC1CC(C(O)CC1c4ccccc4-c4cncn41)(C3)C2 (single isomer, unassigned) [Compound 53A] | inhibition at 0.1 µM (HeLa cell based IDO1; at 100 nM): > 50%
– | < 100 nM | OC(CC1c2ccccc2-c2cncn21)C12CC3CC(C1)C(Nc1nc4ccccc4s1)C(C3)C2 (single isomer, unassigned) [Compound 125B] | –
– | < 100 nM | N#Cc1ccc(S(=O)(=O)NC23CC4CC(C2)C(C(O)CC2c5ccccc5-c5cncn52)C(C4)C3)cc1 (single isomer, unassigned) [Compound 165A] | –
– | 500 to 1000 nM | N#Cc1ccc(S(=O)(=O)NC23CC4CC(C2)C(C(O)CC2c5ccccc5-c5cncn52)C(C4)C3)cc1 (single isomer, unassigned) [Compound 165B] | –
– | < 100 nM | CS(=O)(=O)NC12CC3CC(C1)C(C(O)CC1c4ccccc4-c4cncn41)C(C3)C2 (single isomer, unassigned) [Compound 168A] | –
– | 1000 to 10000 nM | CS(=O)(=O)NC12CC3CC(C1)C(C(O)CC1c4ccccc4-c4cncn41)C(C3)C2 (single isomer, unassigned) [Compound 168B] | –
< 100 nM | – | OC(CC1c2ccccc2-c2cncn21)C12CC3CC(C1)C(c1ccccc1)C(C3)C2 (centres unmarked) [Compound 62A] | inhibition values of % (HeLa cell based IDO1): greater than 50%
– | < 100 nM | O=S(=O)(NC1C2CC3CC1CC(C(O)CC1c4c(F)cccc4-c4cncn41)(C3)C2)C1CC1 (centres unmarked) [Compound 81A] | –
– | < 100 nM | O=C(Nc1ccc(F)cc1)NC1C2CC3CC1CC(C(O)CC1c4c(F)cccc4-c4cncn41)(C3)C2 (centres unmarked) [Compound 93A] | –
– | < 100 nM | O=C(Nc1ccc(F)c(F)c1)NC1C2CC3CC1CC(C(O)CC1c4c(F)cccc4-c4cncn41)(C3)C2 (centres unmarked) [Compound 108A] | –
– | < 100 nM | OC(CC1c2c(F)cccc2-c2cncn21)C12CC3CC(C1)C(Nc1nc4ccccc4o1)C(C3)C2 (centres unmarked) [Compound 124A] | –
– | 100 to 500 nM | O=C(Nc1ccccc1)NC12CC3CC(C1)C(C(O)CC1c4ccccc4-c4cncn41)C(C3)C2 (centres unmarked) [Compound 162A] | –
– | 100 to 500 nM | CCS(=O)(=O)NC12CC3CC(C1)C(C(O)CC1c4ccccc4-c4cncn41)C(C3)C2 (centres unmarked) [Compound 167A] | –
